The values that follow come from US20230270764A1, “COMPOSITION COMPRISING CANNABINOIDS, TERPENES, AND FLAVONOIDS FOR TREATING DEPRESSION” (priority 2020, published 2023).

The structures appear in SMILES notation.

Assay [1] concerns LPS-injected mice. In words: Sucrose preference test in the LPS-induced model of depression. The assay is classed as in vivo. The conditions noted are these: Example 9; male C57BL/6, i.p. 1 h before LPS 330 µg/kg; mg/kg: CBD 30; CBDA 1 or 5; BCP 50; kaempferol 30; CBD 30 plus THC 10; CBD 30 plus kaempferol 30. The source says:
In a preliminary screening experiment, subjects were 4-6 months-old male C57BL/6 (Jackson Laboratories, USA). Animals were housed 2-3/cage, kept in an air-conditioned room (23+°C) and given ad libitum access to food and water. The mice were kept in a reversed light/dark cycle, with lights off from 7 a.m. to 7 p.m. All experiments were approved by the Hebrew University of Jerusalem Ethics Committee on Animal Care and Use. In preparation for the Sucrose Preference Test, mice were habituated 2-3 times to sucrose drinking, by exposing them overnight to two graduated tubes, one containing water and the other containing sucrose solution (1%, w/v). Water and sucrose consumption were measured, and sucrose preference was computed by dividing the amount of sucrose consumed by drinking (ml sucrose) by the total drinking volume (ml of sucrose + water). One day later, the weight of the mice and the food in their cages was weighed for later analysis of food consumption and body weight changes. Groups of mice were injected intraperitoneally (i.p.) with either vehicle (cremophor, ethanol and PBS, 1:1:18 (v/v/v)) or a cannabinoid-based formulation (by itself or with another cannabinoid, or a terpene or a flavonoid). One hour later, each of these groups was injected with LPS (330 µg/kg). All injections were administered at a dose of 10 ml/kg. Four hours following the LPS injection, mice were tested in the Open-Field Test. In this test, the measured locomotor activity reflects not only motor capacity, but particularly the innate motivation for spatial exploration (which increases the distance travelled) and the anxiety level (which reduces the distance travelled, in general, and particularly the distance and time spent in the center of the open field). Each subject was placed near one of the walls of a white 50 X 50 cm^2 arena with 40 cm high walls. The distance travelled (cm), the velocity of the movement (cm/second), the time spent (seconds), distance travelled (cm) in the center area of the arena, as well as the number of entries from the perimeter area into the center of the arena were automatically measured over a 4-minute period, using EthoVision XT video tracking system and software (Noldus, The Netherlands). Twenty-four hours after the LPS injection, mice were tested in the Social Exploration Test. […] Social exploration, defined as the time of near contact between the nose of the subject and the juvenile in the small cage was recorded for 4 min, using computerized in-house software. Sucrose preference was assessed, as described above, between 8 to 27 hr post LPS injection. Body weight and weight of the food were measured two hours before the LPS injection, and again after 24 hours, and the change in body weight and food consumption were calculated. […]

The test system of assay [2] is LPS-injected mice. The assay can be described thus: Open field test in the LPS-induced model of depression. The assay is classed as in vivo. The conditions noted are these: for distance travelled in the open field compared with vehicle-treated groups: Example 9, 4-6 months-old male C57BL/6, i.p. 1 h before LPS 330 µg/kg, mg/kg: CBD 30, CBDA 1 or 5, CBD 30 plus THC 10, CBD 30 plus BCP 50. From the text:
Animals were housed 2-3/cage, kept in an air-conditioned room (23+°C) and given ad libitum access to food and water. The mice were kept in a reversed light/dark cycle, with lights off from 7 a.m. to 7 p.m. All experiments were approved by the Hebrew University of Jerusalem Ethics Committee on Animal Care and Use. In preparation for the Sucrose Preference Test, mice were habituated 2-3 times to sucrose drinking, by exposing them overnight to two graduated tubes, one containing water and the other containing sucrose solution (1%, w/v). Water and sucrose consumption were measured, and sucrose preference was computed by dividing the amount of sucrose consumed by drinking (ml sucrose) by the total drinking volume (ml of sucrose + water). One day later, the weight of the mice and the food in their cages was weighed for later analysis of food consumption and body weight changes. Groups of mice were injected intraperitoneally (i.p.) with either vehicle (cremophor, ethanol and PBS, 1:1:18 (v/v/v)) or a cannabinoid-based formulation (by itself or with another cannabinoid, or a terpene or a flavonoid). One hour later, each of these groups was injected with LPS (330 µg/kg). All injections were administered at a dose of 10 ml/kg. Four hours following the LPS injection, mice were tested in the Open-Field Test. In this test, the measured locomotor activity reflects not only motor capacity, but particularly the innate motivation for spatial exploration (which increases the distance travelled) and the anxiety level (which reduces the distance travelled, in general, and particularly the distance and time spent in the center of the open field). Each subject was placed near one of the walls of a white 50 X 50 cm^2 arena with 40 cm high walls. The distance travelled (cm), the velocity of the movement (cm/second), the time spent (seconds), distance travelled (cm) in the center area of the arena, as well as the number of entries from the perimeter area into the center of the arena were automatically measured over a 4-minute period, using EthoVision XT video tracking system and software (Noldus, The Netherlands). Twenty-four hours after the LPS injection, mice were tested in the Social Exploration Test. In this test, the subject was placed in an observation cage containing a small metal wire mesh cage with a conspecific mouse inside it. Social exploration, defined as the time of near contact between the nose of the subject and the juvenile in the small cage was recorded for 4 min, using computerized in-house software. Sucrose preference was assessed, as described above, between 8 to 27 hr post LPS injection. Body weight and weight of the food were measured two hours before the LPS injection, and again after 24 hours, and the change in body weight and food consumption were calculated.
This particular study was conducted in several experimental cohorts, and not all compounds and all measures were studied in all cohort. However, each cohort included a vehicle-treated group; therefore, the scores in each behavioral test were converted to % of mean vehicle-treated group in every individual cohort/experiment. Statistical comparisons were computed using SPSS software and consisted of one-way analyses of variance (ANOVA), followed by post-hoc comparisons with the Student-Newman-Keuls method. […]

As to `O=c1c(O)c(-c2ccc(O)cc2)oc2cc(O)cc(O)c12` [kaempferol], the “sucrose preference compared with vehicle-treated groups” value in the assay on LPS-injected mice [1] is “significantly increased sucrose preference”. Also, the “open-field activity compared with the Veh-treated LPS group” value in the assay on LPS-injected mice [2] (adult female mice, kaempferol 60 mg/kg by itself or together with CBD 30 mg/kg) is “significant elevation in open-field activity”.
Turning to `C=C(C)[C@@H]1CCC(C)=C[C@H]1c1c(O)cc(CCCCC)c(C(=O)O)c1O` [CBDA, Cannabidiolic acid], in the assay with LPS-injected mice [1], the “sucrose preference compared with vehicle-treated groups” value was “significantly increased sucrose preference”. In addition, the “distance travelled in the open field compared with vehicle-treated groups” value with LPS-injected mice [2] is reported as “significantly increased distance travelled”. Moreover, the “open field distance vs Vehicle-treated LPS-injected mice” value with LPS-injected mice [2] (young-adult female mice, CBDA 5 mg/kg (not 0.5 or 1)) is “significantly increased”.
On to `C=C(C)[C@@H]1CCC(C)=C[C@H]1c1c(O)cc(CCCCC)cc1O` [CBD, cannabidiol], for which the “sucrose preference compared with vehicle-treated groups” value in the assay on LPS-injected mice [1] is listed as “significantly increased sucrose preference”. Further, the “distance travelled in the open field compared with vehicle-treated groups” value in the assay on LPS-injected mice [2] is reported as “significantly increased distance travelled”. For the same molecule, the “distance travelled in open field vs vehicle-LPS group” value in the assay with LPS-injected mice [2] (Example 18, 7 months-old male mice, 3 daily i.p. injections, LPS 250 µg/kg, CLX 10 and 20 mg/kg or CBD 30 mg/kg by themselves) is reported as “did not have significant effects”. Further, the “number of entries into the center area vs vehicle-LPS group” value in the assay with LPS-injected mice [2] (Example 18, CBD 30 mg/kg by itself) was “no significant effects”. Moreover, the “distance moved in the center of the open field vs vehicle-LPS group” value with LPS-injected mice [2] (Example 18, celecoxib 10, 20, 30 mg/kg or CBD 30 mg/kg by themselves) is “no significant effects”. For the same molecule, the “distance travelled in the open field test” value in the assay with LPS-injected mice [2] (adult (6-9 months-old) and young adult (2.5-3 months old) female mice, acute CBD, saline or LPS) is on record as “None of these parameters was influenced by treatment with CBD”. Further, the “distance traveled in the open field test, LPS-injected groups” value with LPS-injected mice [2] (adult (6-9 months-old) male mice, acute CBD 30 mg/kg) is listed as “significantly attenuated the suppressive effect of LPS”. Further, the “LPS-induced decrease in distance moved in the open field test” value in the assay on LPS-injected mice [2] (young adult (2.5-3 months old) male mice, acute CBD) is “None of these parameters was influenced by treatment with CBD”. Further, the “attenuation of LPS effect on distance travelled in the open field test” value with LPS-injected mice [2] (young-adult male mice, CBD 30 mg/kg i.p. 3 consecutive days, last 1 hr before LPS 330 µg/kg) is listed as “did not reach statistical significance”.
